pEC50, pIC50: −log10 of the molar value.
These compounds were tested against DNA-PK (Homo sapiens (Human), UniProt P78527) (assay: DNAPK activity assay (ADP Hunter Plus)). Conditions: 75 μM ATP.
Format: biochemical
Method: The kinase activity was measured by using the commercial ADP Hunter™ Plus assay available from DiscoveRx (#90-0083), which is a homogeneous assay to measure the accumulation of ADP, a universal product of kinase activity. The enzyme, DNA-PK was purchased from Promega (#V5811). The assay was done following the manufacturer recommendations with slight modifications: Mainly the kinase buffer was replace by 15 mM HEPES, pH 7.5, 10 mM MgCl2, 20 mM NaCl, 1 mM EGTA, 0.1 mg/mL BGG, 0.02% Tween 20. The DNA-PK was assayed in a titration experiment to determine the optimal protein concentration for the inhibition assay. To calculate the […] of the Compounds, serial 1:3 dilutions of the compounds were added to the enzyme at a fixed concentration (2 U/μL). The enzyme was preincubated with the inhibitor and 200 μM DNA substrate and then ATP was added to a final 75 μM concentration. Reaction was carried out for 1 hour at 37° C. Reagent A and B were sequentially added to the wells and plates were incubated for 30 min at RT. Fluorescence counts were read in a EnVision instrument (Perkin Elmer) with the recommended settings (550 and 590 nm as excitation and emission wavelengths, respectively).

| SMILES | pIC50 |
| --- | --- |
| CS(=O)(=O)C1(c2nc(-c3cc(F)cc4[nH]ccc34)nc3c2OC[C@@H]2COCCN32)CCC1 [Example 77] | 5.00 |
| CC(C)(c1nc(-c2cccc3[nH]ccc23)nc2c1OC[C@@H]1COCCN21)S(=O)(=O)C1CC1 [Example 61] | 5.00 |
| CNc1nc2cc(Cl)ccc2n1-c1nc2c(c(C(C)(C)S(C)(=O)=O)n1)OC[C@@H]1COCCN21 [Example 80] | 5.00 |
| CS(=O)(=O)C1(c2nc(-c3cc(C(F)(F)F)cc4[nH]ccc34)nc3c2OC[C@@H]2COCCN32)CC1 [Example 108] | 5.76 |
| CNc1nc2ccc(F)cc2n1-c1nc2c(c(C3(S(C)(=O)=O)CCC3)n1)OC[C@@H]1COCCN21 [Example 97] | 5.17 |
| Cc1cc2c(-c3nc4c(c(C(C)(C)S(C)(=O)=O)n3)OC[C@@H]3COCCN43)cccc2[nH]1 [Example 103] | 5.00 |
| CNc1nc2ccc(F)cc2n1-c1nc2c(c(C(C)(C)S(C)(=O)=O)n1)OC[C@@H]1COCCN21 [Example 83] | 5.51 |

What follows are compounds tested against PI3K (p110α/p85α) (Homo sapiens (Human), UniProt P42336) (assay: PI3K alpha activity assay (ADP Hunter Plus)). Conditions: 50 μM ATP, 30 μM PIP2; read-out: PI3Kα IC50.
Format: biochemical
Method: The kinase activity was measured by using the commercial ADP Hunter™ Plus assay available from DiscoveRx (#33-016), which is a homogeneous assay to measure the accumulation of ADP, a universal product of kinase activity. […] The reaction was carried out for 1 hour at 25° C. Reagent A and B were sequentially added to the wells and plates were incubated for 30 min at 37° C. Fluorescence counts were read in a Victor instrument (Perkin Elmer) with the recommended settings (544 and 580 nm as excitation and emission wavelengths, respectively).

Sequence of PI3K (p110α/p85α) (P42336 whole entry): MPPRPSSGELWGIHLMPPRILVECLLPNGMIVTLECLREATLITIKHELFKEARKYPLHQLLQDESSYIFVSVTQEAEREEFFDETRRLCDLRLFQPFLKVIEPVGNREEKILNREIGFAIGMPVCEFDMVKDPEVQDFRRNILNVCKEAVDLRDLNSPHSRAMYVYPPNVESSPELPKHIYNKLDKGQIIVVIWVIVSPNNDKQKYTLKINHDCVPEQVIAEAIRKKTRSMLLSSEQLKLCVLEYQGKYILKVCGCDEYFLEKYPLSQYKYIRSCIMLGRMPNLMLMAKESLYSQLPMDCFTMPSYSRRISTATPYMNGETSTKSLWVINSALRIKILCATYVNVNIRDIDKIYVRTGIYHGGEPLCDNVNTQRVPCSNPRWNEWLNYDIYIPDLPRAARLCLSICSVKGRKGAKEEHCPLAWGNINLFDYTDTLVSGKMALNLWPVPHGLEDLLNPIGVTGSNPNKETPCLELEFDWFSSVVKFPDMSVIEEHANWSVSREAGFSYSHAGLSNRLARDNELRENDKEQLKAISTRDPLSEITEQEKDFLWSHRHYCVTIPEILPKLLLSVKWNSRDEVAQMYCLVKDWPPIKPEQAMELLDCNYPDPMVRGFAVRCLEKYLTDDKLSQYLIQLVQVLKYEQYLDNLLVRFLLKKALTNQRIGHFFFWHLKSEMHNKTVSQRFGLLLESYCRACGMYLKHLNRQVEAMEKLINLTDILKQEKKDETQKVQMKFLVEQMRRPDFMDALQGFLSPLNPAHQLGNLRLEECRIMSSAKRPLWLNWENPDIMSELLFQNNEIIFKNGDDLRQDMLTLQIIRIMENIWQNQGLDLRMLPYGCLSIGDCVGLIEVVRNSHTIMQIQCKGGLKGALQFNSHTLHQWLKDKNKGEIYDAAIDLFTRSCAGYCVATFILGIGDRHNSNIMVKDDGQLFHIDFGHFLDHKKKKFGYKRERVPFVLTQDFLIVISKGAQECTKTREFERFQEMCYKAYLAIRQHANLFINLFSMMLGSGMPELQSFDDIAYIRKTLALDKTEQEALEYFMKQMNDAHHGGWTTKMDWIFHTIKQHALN
Sequence of PI3K (p110α/p85α) (P27986 whole entry partner): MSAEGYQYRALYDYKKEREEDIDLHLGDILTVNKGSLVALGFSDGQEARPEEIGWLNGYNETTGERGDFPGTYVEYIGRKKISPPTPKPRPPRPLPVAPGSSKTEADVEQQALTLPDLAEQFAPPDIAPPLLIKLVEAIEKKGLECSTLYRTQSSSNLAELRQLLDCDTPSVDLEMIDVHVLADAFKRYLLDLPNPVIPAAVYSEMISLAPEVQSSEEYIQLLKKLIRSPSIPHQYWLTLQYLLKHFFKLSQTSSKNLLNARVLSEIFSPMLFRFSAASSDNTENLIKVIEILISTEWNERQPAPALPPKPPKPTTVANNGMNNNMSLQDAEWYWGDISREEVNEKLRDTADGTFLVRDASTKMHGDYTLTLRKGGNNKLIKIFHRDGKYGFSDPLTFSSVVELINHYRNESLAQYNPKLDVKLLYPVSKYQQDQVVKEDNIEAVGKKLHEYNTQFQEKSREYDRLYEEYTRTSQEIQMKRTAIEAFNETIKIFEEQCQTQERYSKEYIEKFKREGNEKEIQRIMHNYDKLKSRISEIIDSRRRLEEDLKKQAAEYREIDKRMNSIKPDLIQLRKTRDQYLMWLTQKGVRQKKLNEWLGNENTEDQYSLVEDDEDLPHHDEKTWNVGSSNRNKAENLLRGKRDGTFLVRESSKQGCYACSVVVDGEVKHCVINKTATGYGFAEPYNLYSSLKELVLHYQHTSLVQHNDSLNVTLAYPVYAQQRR

| SMILES | pIC50 |
| --- | --- |
| CS(=O)(=O)C1(c2nc(-c3cc(F)cc4[nH]ccc34)nc3c2OC[C@@H]2COCCN32)CCC1 [Example 77] | 5.27 |
| CC(C)(c1nc(-c2cccc3[nH]ccc23)nc2c1OC[C@@H]1COCCN21)S(=O)(=O)C1CC1 [Example 61] | 5.49 |
| CNc1nc2cc(Cl)ccc2n1-c1nc2c(c(C(C)(C)S(C)(=O)=O)n1)OC[C@@H]1COCCN21 [Example 80] | 4.88 |
| CS(=O)(=O)C1(c2nc(-c3cc(C(F)(F)F)cc4[nH]ccc34)nc3c2OC[C@@H]2COCCN32)CC1 [Example 108] | 4.81 |
| CNc1nc2ccc(F)cc2n1-c1nc2c(c(C3(S(C)(=O)=O)CCC3)n1)OC[C@@H]1COCCN21 [Example 97] | 4.30 |
| Cc1cc2c(-c3nc4c(c(C(C)(C)S(C)(=O)=O)n3)OC[C@@H]3COCCN43)cccc2[nH]1 [Example 103] | 5.50 |
| CNc1nc2ccc(F)cc2n1-c1nc2c(c(C(C)(C)S(C)(=O)=O)n1)OC[C@@H]1COCCN21 [Example 83] | 4.91 |

These compounds were tested against mTOR (Homo sapiens (Human), UniProt P42345) (assay: mTOR activity assay (LanthaScreen)). Conditions: not given.
Format: biochemical
Method: The enzymatic mTOR activity was measured using a LanthaScreen™ kinase activity assay (Invitrogen). The enzyme was purchased from Invitrogen (PV4754), as well as the GFP-labelled substrate (4EBP1-GFP; PV4759) and the Tb-antip4EBP1(pThr46) antibody (PV4757). The assay was performed in 50 Mm HEPES buffer, pH 7.5, containing 1.5 mM MnCl2, 10 mM MgCl2, 1 mM EGTA, 2.5 mM DTT and 0.01% Tween-20. The concentration of the assay components were the following: 0.24 nM mTOR kinase, 400 nM 4EBP1-GFP, […] and serial dilutions of the compound (inhibitor) to be evaluated. After 1 h incubation at room temperature, 20 mM EDTA was used to stop the reaction and terbium-labelled antibody (4 nM) added to detect phosphorylated product. The antibody associates with the phosphorylated product resulting in an increased TR-FRET value. The TR-FRET value (a dimensionless number) was calculated as the ratio of the acceptor signal (GFP, emission at 520 nm) to the donor signal (terbium, emission at 495 nm).

Sequence of mTOR (P42345 1360-2549): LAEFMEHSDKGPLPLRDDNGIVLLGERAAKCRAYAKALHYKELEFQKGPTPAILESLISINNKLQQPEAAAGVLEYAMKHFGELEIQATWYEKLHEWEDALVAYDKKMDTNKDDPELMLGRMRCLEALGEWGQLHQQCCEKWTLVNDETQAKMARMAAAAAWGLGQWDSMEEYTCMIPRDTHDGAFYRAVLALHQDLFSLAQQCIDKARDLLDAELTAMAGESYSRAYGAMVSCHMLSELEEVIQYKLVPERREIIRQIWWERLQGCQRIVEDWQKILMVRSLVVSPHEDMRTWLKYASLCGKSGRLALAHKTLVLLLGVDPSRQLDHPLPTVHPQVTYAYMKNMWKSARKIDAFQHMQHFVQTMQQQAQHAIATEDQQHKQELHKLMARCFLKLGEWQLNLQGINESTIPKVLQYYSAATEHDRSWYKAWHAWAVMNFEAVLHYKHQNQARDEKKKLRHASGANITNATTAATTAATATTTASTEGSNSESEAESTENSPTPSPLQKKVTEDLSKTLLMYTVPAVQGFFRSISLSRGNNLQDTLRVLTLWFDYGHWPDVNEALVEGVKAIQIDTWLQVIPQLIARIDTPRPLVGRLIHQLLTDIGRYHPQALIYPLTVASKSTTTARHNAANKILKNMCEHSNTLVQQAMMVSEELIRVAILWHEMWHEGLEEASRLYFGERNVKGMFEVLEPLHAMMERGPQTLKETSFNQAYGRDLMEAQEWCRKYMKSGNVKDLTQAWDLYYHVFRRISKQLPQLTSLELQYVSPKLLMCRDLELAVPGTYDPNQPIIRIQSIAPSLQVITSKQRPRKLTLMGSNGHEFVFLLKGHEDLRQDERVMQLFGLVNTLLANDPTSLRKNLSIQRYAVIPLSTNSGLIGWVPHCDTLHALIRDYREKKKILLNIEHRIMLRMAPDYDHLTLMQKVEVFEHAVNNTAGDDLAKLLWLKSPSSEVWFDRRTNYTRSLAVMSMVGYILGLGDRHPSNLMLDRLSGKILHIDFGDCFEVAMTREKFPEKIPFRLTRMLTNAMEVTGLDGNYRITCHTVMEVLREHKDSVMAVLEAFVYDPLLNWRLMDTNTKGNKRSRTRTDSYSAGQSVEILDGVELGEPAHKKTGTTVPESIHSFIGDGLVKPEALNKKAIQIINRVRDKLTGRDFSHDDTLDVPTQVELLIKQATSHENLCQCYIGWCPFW

| SMILES | pIC50 |
| --- | --- |
| CS(=O)(=O)C1(c2nc(-c3cc(F)cc4[nH]ccc34)nc3c2OC[C@@H]2COCCN32)CCC1 [Example 77] | < 5.00 |
| CC(C)(c1nc(-c2cccc3[nH]ccc23)nc2c1OC[C@@H]1COCCN21)S(=O)(=O)C1CC1 [Example 61] | 6.64 |
| CNc1nc2cc(Cl)ccc2n1-c1nc2c(c(C(C)(C)S(C)(=O)=O)n1)OC[C@@H]1COCCN21 [Example 80] | 6.30 |
| CS(=O)(=O)C1(c2nc(-c3cc(C(F)(F)F)cc4[nH]ccc34)nc3c2OC[C@@H]2COCCN32)CC1 [Example 108] | 6.24 |
| CNc1nc2ccc(F)cc2n1-c1nc2c(c(C3(S(C)(=O)=O)CCC3)n1)OC[C@@H]1COCCN21 [Example 97] | 5.17 |
| Cc1cc2c(-c3nc4c(c(C(C)(C)S(C)(=O)=O)n3)OC[C@@H]3COCCN43)cccc2[nH]1 [Example 103] | 7.24 |
| CNc1nc2ccc(F)cc2n1-c1nc2c(c(C(C)(C)S(C)(=O)=O)n1)OC[C@@H]1COCCN21 [Example 83] | 5.61 |

Each compound was assayed against ATR (Homo sapiens (Human), UniProt Q13535) (assay: Cellular ATR inhibition, western blot of CHK1(S345) phosphorylation in hydroxyurea treated cells). Conditions: HT29 cells, hydroxyurea 2.5 mM.
Format: cell-based
Method: In addition to the selective system described above, Example compounds presented here were screened for their ability to inhibit intracellular ATR using a western blot assay to detect phosphorylation of the ATR substrate CHK1(S345) in hydroxyurea treated cells. HT29 cells are plated at 500,000 cells per well in 6-well plates in RPMI media (Sigma R6504) supplemented with 10% foetal bovine serum (Sigma F7524), Penicillin/Streptomycin solution diluted 1:100 (Gibco 15070-063), and fungizone (Gibco, 15290-018), and allowed to adhere overnight at 37° C. in 5% CO2. Compounds are then added to the cell media from a final concentration of 10 μM in 3-fold serial dilutions and the cells are incubated at 37° C. in 5% CO2. After 15 min, hydroxyurea (Sigma H8627) is added to a final concentration of 2.5 mM. After 30 min of treatment with hydroxyurea, the cells are washed in PBS, lysed adding 50 μl of in protein lysis buffer (50 mM Tris pH 7.5, 150 mM NaCl, 1% IGEPAL CO-630 (Sigma, Ref. 542334-100G-A), Phospho Stop (Roche, Ref. 04906837001) and Complete Mini EDTA free (Roche, Ref. 11836170001)). The protein content of the lysates was determined by the modified method of Bradford (Sigma, Ref. B6916). The proteins were resolved by SDS-PAGE and transferred to nitrocellulose membrane (VWR International Eurolab, Ref. 732-4007). The membranes were incubated overnight at 4° C. with antibodies specific for total CHK1 (Santa Cruz Biotechnology, sc-8404), phosphoserine-345 CHK1 (Cell Signaling Technology #2348) they were washed and then incubated with IRDye800 conjugated anti-mouse (Pierce/Cultek, 35521) and Alexa Fluor 680 goat anti-rabbit IgG secondary antibodies (Invitrogen, A21076). The bands were visualized and quantified using an Odyssey infrared imaging system (Li-Cor Biosciences). The percentage of phosphorylated CHK1 vs total CHK1 in cells treated with hydroxyurea was taken as hundred percent of phosphorylation. The percentage of CHK1 phosphorylation is finally plotted against concentration for each compound and EC50s for intracellular ATR inhibition are calculated using ActivityBase from IDBS.

| SMILES | pEC50 |
| --- | --- |
| CS(=O)(=O)C1(c2nc(-c3cc(F)cc4[nH]ccc34)nc3c2OC[C@@H]2COCCN32)CCC1 [Example 77] | > 7.00 |
| CC(C)(c1nc(-c2cccc3[nH]ccc23)nc2c1OC[C@@H]1COCCN21)S(=O)(=O)C1CC1 [Example 61] | 6.00 to 7.00 |
| CS(=O)(=O)C1(c2nc(-c3cc(C(F)(F)F)cc4[nH]ccc34)nc3c2OC[C@@H]2COCCN32)CC1 [Example 108] | 6.00 to 7.00 |
| Cc1cc2c(-c3nc4c(c(C(C)(C)S(C)(=O)=O)n3)OC[C@@H]3COCCN43)cccc2[nH]1 [Example 103] | 6.00 to 7.00 |

Same assay, conditions: HT29 cells, hydroxyurea […]

| SMILES | pEC50 |
| --- | --- |
| CNc1nc2cc(Cl)ccc2n1-c1nc2c(c(C(C)(C)S(C)(=O)=O)n1)OC[C@@H]1COCCN21 [Example 80] | < 6.00 |
| CNc1nc2ccc(F)cc2n1-c1nc2c(c(C3(S(C)(=O)=O)CCC3)n1)OC[C@@H]1COCCN21 [Example 97] | 6.00 to 7.00 |
| CNc1nc2ccc(F)cc2n1-c1nc2c(c(C(C)(C)S(C)(=O)=O)n1)OC[C@@H]1COCCN21 [Example 83] | 6.00 to 7.00 |

— patent US9453031B2, “Chemical entities” (Fundación Centro Nacional de Investigaciones Oncológicas …, priority 2013, dated 2016)
